The values below come from patent US12227500B2, “Substituted pyrrolo[2,3-b]pyridines for suppressing toxic endoplasmic reticulum stress” (THE TRUSTEES OF COLUMBIA UNIVERSITY IN THE CITY OF NEW YORK, priority 2018, dated 2025).

Assay [1] has as its system human ES motor neurons carrying the ALS-causing SOD1^A4V mutation. The assay is described as follows: cells. The assay is classed as cell-based. The settings on record: Homo sapiens, Neuron, 72 h, 72 h; for EC50 / Emax: CPA 33 μM; for EC50: read-out: EC50; for viability at 1 µM: CPA (33 μM) + compound (1 μM), read-out: Motor Neuron Survival, % untreated; for Emax: read-out: Emax (MN survival % untreated). The procedure: Next, survival assays were performed with all the analogs at once to generate a low-variability dataset. All compounds were evaluated at concentrations ranging from 0.1-3.0 μM (five-point dilution) in three technical replicates and two biological replicates.

In a further assay the target is T1, MLK3/MAP3K11 (Homo sapiens, UniProt Q16584).
T1 construct: purchased Reaction Biology Corp
The assay is described as follows: Radiolabeled ATP kinase assay (Reaction Biology Corp.), MLK3. The assay is classed as biochemical. To be noted: [Cmpd] 0.1 μM; 10 μM ATP. The procedure:
(§1) Meanwhile, the same analogs were analyzed in a radiolabeled ATP assay (10 μM ATP; Reaction Biology Corp.) to compare the extent to which they could inhibit the activity of HGK, MLK1, or MLK3 in a cell-free environment (Table S3 and S4).

For assay [2], the target named is T2, panel of 60 human kinases (Homo sapiens, UniProt O14965).
T2 construct: purchased Reaction Biology Corp
T2 sequence (O14965 1-403): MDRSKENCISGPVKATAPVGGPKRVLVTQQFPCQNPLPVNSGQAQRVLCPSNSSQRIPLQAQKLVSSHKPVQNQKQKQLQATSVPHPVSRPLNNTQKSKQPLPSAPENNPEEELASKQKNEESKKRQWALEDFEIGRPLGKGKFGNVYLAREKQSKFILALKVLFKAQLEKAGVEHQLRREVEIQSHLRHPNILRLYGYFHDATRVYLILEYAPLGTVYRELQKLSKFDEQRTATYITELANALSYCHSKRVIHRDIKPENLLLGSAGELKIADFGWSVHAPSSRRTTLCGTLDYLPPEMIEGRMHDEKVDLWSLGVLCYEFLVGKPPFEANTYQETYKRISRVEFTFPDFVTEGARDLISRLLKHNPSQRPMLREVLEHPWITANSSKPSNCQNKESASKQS
Briefly: Radiolabeled ATP kinase assay, panel of 60 kinases (Table S5). The format is biochemical. The settings on record: Aurora A; 0.1 μM; 10 μM ATP; read-out: % Enzyme Activity (relative to DSMO controls). How it is done: (§2) To better understand the biologically relevant targets of compound 1 and its analogs, a second round of cell-free kinase assays was performed. In this expanded assay, we selected ten analogs ranging from moderately to very strongly protective in the CPA assay. These analogs were evaluated for their ability to inhibit a selection of 60 kinases at 0.1 μM and 0.5 μM. […] RNAseq data were used to confirm the expression of each kinase in ES MNs (see Example 12).
(§3) RNAseq data were used to confirm the expression of each kinase in ES motor neurons (see Example 12).

Assay [3] deals with T3, panel of 60 human kinases (Homo sapiens, UniProt P11802).
T3 construct: purchased Reaction Biology Corp
The description is as above. The format is biochemical. To be noted: 0.1 μM, 10 μM ATP, read-out: % Enzyme Activity (relative to DSMO controls). The procedure:
as §2, §3

Assay [4] addresses T4, panel of 60 human kinases (Homo sapiens, UniProt P49840).
T4 construct: purchased Reaction Biology Corp
Described as above. The assay is classed as biochemical. To be noted: GSK3a; 0.1 μM; 10 μM ATP; read-out: % Enzyme Activity (relative to DSMO controls). How it is done: as §2, §3

The target of assay [5] is T5, panel of 60 human kinases (Homo sapiens, UniProt P49841).
T5 construct: purchased Reaction Biology Corp
The assay is described as above. The assay is classed as biochemical. To be noted: GSK3b; 0.1 μM; 10 μM ATP; read-out: % Enzyme Activity (relative to DSMO controls). The procedure: as §2, §3

The target of assay [6] is T6, panel of 60 human kinases (Homo sapiens, UniProt P50750).
T6 construct: purchased Reaction Biology Corp
The description is as above. To be noted: 0.1 μM, 10 μM ATP, read-out: % Enzyme Activity (relative to DSMO controls). The assay is classed as biochemical. How it is done: as §2, §3

Assay [7] concerns the target T7, panel of 60 human kinases (Homo sapiens, UniProt Q00536).
T7 construct: purchased Reaction Biology Corp
The description is as above. The format is biochemical. The settings on record: CDK16/cyclin Y (PCTAIRE); 0.1 μM; 10 μM ATP; read-out: % Enzyme Activity (relative to DSMO controls). The procedure:
as §2, §3

Assay [8] addresses T8, panel of 60 human kinases (Homo sapiens, UniProt Q00537).
T8 construct: purchased Reaction Biology Corp
The assay is described as above. To be noted: CDK17/cyclin Y (PCTK2); 0.1 μM; 10 μM ATP; read-out: % Enzyme Activity (relative to DSMO controls). The format is biochemical. How it is done: as §2, §3

The target in assay [9] is T9, panel of 60 human kinases (Homo sapiens, UniProt Q92630).
T9 construct: purchased Reaction Biology Corp
T9 sequence (Q92630 1-601): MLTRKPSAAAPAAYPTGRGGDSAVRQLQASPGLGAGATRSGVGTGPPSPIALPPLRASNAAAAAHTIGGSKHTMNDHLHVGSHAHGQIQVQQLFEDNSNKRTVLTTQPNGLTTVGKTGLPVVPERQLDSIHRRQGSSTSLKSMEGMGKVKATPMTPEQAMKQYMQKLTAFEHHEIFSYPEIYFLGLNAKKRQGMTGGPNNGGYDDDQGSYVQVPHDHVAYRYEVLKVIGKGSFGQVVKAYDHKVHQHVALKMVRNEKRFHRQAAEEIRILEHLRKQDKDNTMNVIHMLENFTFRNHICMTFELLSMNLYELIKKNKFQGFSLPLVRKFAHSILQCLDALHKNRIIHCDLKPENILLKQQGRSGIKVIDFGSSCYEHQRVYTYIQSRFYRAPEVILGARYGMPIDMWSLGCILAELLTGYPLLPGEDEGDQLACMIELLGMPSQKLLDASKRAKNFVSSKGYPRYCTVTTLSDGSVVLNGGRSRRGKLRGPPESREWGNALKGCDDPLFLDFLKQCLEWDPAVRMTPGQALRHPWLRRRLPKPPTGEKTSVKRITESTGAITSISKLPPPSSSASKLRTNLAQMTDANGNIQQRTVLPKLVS
Described as above. The assay is classed as biochemical. The settings on record: DYRK2; 0.1 μM; 10 μM ATP; read-out: % Enzyme Activity (relative to DSMO controls). How it is done: as §2, §3

The target in assay [10] is T10, panel of 60 human kinases (Homo sapiens, UniProt Q9UKE5).
T10 construct: purchased Reaction Biology Corp
Described as above. The format is biochemical. The settings on record: TNIK; 0.1 μM; 10 μM ATP; read-out: % Enzyme Activity (relative to DSMO controls). How it is done:
as §2, §3

Assay [11] deals with T11, panel of 60 human kinases (Homo sapiens, UniProt Q9UM73).
T11 construct: purchased Reaction Biology Corp
The assay is described as above. The assay is classed as biochemical. The settings on record: ALK; 0.1 μM; 10 μM ATP; read-out: % Enzyme Activity (relative to DSMO controls). How it is done:
as §2, §3

The target of another assay is HGK/MAP4K4 (Homo sapiens, UniProt O95819). Briefly: Radiolabeled ATP kinase assay (Reaction Biology Corp.), HGK. The format is biochemical. Set-up: purchased Reaction Biology Corp. The settings on record: 10 μM ATP, read-out: % Enzyme Activity (relative to DMSO controls), HGK/MAP4K4, Data 1; for remaining activity at 0.025 µM: [Cmpd] 0.025 μM; for remaining activity at 0.1 µM: [Cmpd] 0.1 μM. How it is done: as §1

Where two headings read alike, the source gives them in different places.

For orientation: EC50 means the concentration at which the effect is half-maximal.

T1 sequence (Q16584 whole entry): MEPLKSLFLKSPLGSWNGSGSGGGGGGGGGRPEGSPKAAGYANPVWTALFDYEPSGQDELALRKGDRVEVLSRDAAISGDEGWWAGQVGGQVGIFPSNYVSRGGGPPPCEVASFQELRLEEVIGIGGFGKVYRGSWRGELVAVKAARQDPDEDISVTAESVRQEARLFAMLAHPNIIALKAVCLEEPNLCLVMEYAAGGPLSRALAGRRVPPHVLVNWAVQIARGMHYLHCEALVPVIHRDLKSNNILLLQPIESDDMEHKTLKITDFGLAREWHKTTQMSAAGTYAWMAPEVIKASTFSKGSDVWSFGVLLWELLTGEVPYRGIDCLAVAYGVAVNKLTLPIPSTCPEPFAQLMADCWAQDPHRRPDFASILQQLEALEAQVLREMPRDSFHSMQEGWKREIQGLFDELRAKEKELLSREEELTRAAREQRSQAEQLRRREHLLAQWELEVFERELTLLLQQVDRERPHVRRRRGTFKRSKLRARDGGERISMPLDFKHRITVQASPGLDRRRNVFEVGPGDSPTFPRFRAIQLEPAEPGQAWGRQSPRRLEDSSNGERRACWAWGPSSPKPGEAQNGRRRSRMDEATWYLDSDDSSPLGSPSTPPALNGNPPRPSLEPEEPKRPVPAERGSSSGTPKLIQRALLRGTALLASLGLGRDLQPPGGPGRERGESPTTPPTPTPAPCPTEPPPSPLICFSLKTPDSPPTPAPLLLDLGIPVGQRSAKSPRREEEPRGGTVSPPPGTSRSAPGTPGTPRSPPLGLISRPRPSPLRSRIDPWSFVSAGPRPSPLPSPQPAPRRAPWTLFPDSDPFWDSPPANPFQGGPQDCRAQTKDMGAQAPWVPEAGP
T5 sequence (P49841 whole entry): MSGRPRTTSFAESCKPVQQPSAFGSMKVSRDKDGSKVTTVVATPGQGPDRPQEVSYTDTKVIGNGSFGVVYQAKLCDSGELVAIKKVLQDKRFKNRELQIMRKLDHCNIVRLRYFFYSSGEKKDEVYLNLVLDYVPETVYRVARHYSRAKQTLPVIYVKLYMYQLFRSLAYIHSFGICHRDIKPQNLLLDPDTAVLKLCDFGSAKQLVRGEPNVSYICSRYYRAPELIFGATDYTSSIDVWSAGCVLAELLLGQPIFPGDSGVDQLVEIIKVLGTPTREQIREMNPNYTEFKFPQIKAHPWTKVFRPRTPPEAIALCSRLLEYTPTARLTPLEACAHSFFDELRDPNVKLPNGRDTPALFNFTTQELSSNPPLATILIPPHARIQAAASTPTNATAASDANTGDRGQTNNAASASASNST
T3 sequence (P11802 whole entry): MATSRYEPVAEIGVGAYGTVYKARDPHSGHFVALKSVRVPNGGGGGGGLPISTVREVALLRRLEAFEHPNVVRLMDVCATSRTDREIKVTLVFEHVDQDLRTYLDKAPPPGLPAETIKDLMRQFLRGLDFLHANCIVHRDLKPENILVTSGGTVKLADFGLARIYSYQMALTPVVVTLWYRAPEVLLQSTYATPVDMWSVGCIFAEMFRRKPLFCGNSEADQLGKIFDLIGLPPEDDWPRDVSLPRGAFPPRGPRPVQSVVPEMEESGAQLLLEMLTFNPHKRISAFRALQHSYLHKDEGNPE
T4 sequence (P49840 whole entry): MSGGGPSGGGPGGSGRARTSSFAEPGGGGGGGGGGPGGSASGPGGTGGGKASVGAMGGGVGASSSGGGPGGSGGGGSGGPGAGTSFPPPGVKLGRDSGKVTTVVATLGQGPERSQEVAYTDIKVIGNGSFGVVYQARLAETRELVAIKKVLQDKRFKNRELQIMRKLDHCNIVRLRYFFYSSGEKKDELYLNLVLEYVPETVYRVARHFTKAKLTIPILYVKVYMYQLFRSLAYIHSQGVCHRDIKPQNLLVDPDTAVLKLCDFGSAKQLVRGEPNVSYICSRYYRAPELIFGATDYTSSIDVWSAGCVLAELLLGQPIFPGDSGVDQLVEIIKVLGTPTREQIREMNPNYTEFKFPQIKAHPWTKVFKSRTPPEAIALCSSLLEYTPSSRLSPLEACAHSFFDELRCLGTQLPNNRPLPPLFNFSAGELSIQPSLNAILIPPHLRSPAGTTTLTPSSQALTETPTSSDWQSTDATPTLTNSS
T11 sequence (Q9UM73 19-1620): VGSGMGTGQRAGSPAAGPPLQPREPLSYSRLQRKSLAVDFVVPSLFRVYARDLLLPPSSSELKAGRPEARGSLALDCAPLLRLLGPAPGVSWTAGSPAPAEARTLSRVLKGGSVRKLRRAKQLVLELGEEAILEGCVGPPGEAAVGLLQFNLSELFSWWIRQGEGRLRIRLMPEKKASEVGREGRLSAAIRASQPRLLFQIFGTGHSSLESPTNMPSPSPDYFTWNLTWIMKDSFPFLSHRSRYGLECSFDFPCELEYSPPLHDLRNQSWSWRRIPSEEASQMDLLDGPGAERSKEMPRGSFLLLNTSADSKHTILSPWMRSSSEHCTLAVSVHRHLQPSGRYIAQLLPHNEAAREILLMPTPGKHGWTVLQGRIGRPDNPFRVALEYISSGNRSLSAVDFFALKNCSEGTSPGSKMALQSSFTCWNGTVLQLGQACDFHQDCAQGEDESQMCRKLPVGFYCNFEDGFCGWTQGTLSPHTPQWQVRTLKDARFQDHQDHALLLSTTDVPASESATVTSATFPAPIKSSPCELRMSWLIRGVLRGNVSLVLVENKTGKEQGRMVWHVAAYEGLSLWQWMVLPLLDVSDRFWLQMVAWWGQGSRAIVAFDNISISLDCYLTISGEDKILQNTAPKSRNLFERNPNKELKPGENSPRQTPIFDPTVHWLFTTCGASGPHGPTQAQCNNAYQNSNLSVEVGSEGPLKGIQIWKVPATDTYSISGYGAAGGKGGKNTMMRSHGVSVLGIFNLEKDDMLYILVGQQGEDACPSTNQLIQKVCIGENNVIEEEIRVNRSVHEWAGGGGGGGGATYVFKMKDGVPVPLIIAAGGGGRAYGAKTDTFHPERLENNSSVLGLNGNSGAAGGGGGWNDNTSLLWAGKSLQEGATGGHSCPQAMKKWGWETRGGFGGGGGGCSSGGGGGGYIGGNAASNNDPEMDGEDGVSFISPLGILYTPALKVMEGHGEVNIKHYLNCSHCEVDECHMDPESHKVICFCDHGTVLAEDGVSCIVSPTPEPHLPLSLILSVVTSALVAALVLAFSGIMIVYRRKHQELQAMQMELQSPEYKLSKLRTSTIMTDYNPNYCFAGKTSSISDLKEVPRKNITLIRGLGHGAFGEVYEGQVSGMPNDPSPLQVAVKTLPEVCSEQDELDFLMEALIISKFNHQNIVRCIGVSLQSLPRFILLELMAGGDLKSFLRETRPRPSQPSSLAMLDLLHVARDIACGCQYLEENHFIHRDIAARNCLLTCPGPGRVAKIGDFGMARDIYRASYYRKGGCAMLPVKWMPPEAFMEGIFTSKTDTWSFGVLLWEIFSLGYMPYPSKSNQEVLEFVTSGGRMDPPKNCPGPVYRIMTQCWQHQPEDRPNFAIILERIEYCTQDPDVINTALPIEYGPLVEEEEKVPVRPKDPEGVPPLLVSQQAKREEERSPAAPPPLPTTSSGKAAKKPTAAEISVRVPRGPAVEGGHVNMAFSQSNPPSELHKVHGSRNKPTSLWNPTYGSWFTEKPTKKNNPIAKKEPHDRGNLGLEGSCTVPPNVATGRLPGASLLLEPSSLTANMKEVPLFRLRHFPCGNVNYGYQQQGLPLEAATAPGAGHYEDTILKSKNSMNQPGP
T7 sequence (Q00536 whole entry): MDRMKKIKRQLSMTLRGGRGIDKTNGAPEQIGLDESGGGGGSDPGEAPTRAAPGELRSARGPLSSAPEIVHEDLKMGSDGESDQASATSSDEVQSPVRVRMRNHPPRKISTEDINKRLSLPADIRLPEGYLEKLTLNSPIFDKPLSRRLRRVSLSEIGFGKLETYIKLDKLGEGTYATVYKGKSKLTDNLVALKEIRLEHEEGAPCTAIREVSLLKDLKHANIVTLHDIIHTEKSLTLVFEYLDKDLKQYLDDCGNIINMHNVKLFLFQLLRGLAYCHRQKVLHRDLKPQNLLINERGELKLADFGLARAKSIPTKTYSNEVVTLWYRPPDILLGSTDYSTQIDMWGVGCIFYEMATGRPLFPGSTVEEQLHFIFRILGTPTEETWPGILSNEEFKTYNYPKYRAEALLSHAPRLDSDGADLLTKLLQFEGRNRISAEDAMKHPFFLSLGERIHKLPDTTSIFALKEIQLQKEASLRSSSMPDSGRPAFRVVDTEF
T8 sequence (Q00537 whole entry): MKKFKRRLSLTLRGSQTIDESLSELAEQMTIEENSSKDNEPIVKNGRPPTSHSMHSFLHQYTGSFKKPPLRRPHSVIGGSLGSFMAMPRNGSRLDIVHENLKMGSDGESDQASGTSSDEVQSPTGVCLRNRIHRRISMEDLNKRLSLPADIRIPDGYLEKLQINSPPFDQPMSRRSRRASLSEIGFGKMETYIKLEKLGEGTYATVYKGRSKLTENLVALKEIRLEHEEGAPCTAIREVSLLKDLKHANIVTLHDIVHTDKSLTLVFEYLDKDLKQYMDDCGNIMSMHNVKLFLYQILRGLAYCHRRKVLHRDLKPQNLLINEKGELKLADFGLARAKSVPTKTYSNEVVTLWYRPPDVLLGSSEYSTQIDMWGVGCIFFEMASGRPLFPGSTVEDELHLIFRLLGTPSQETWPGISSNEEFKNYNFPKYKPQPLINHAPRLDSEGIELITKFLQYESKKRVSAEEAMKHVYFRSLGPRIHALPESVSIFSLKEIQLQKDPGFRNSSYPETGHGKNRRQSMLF
T6 sequence (P50750 whole entry): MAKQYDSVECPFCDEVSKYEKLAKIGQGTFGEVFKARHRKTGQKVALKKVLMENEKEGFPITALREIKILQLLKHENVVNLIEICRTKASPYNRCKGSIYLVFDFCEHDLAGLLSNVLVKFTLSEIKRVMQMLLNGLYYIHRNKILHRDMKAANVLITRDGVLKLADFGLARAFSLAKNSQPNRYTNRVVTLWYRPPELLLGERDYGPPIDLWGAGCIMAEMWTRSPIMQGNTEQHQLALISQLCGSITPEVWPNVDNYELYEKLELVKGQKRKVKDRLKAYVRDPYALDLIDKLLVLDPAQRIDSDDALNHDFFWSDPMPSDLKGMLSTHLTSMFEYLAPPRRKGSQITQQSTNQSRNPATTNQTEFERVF

Regarding `CN1CCN(Cc2ccc(-c3cnc4[nH]cc(-c5cnn(Cc6ccccc6)c5)c4c3)cc2)CC1` [Compound 7ah, 3-(1-Benzyl-1H-pyrazol-4-yl)-5-(4-((4-methylpiperazin-1-yl)methyl)phenyl)-1H-pyrrolo[2,3-b]pyridine], the EC50 in assay [1] was 234 nM. Besides, the viability at 1 µM in assay [1] is 67.1%. Besides, the Emax in assay [1] is 67.1%. For the same molecule, the “% Enzyme Activity Remaining (relative to DMSO controls), MLK3/MAP3K11, Data 1” value on MLK3/MAP3K11 was found to be 32.02%. Also, at MLK3/MAP3K11, the “% Enzyme Activity Remaining (relative to DMSO controls), MLK3/MAP3K11, Data 2” value turned out to be 32.11%. Also, the remaining activity at 0.1 µM in [2] was found to be 48.4%; in [3] (CDK4/cyclin D1), 25.9%; in [3] (CDK4/cyclin D3), 26%; in assay [4], 32.5%; in assay [5], 60.6%; in [6] (CDK9/cyclin K), 93.3%. For the same molecule, the remaining activity at 0.1 µM was found to be 57.8% in assay [6] (CDK9/cyclin T1); 82.7% in assay [6] (CDK9/cyclin T2); 8.19% in [7]; 7.55% in assay [8]; 59.3% in assay [9]; 0.96% in assay [10]. The results for the remaining activity at 0.1 µM (in [11]; on HGK/MAP4K4) were 28.8% and 3.56%, respectively. Also, the remaining activity at 0.025 µM on HGK/MAP4K4 came out at 42.8%.
As for `CN1CCN(Cc2ccc(-c3cnc4[nH]cc(-c5ccncc5)c4c3)cc2)CC1` [Compound 7n, 5-(4-((4-Methylpiperazin-1-yl)methyl)phenyl)-3-(pyridin-4-yl)-1H-pyrrolo[2,3-b]pyridine], the EC50 in assay [1] was 483 nM. Also, the viability at 1 µM in assay [1] is 36.3%. Further, the Emax in [1] is 36.3%. At MLK3/MAP3K11, the “% Enzyme Activity Remaining (relative to DMSO controls), MLK3/MAP3K11, Data 1” value came out at 91.26%. In addition, the “% Enzyme Activity Remaining (relative to DMSO controls), MLK3/MAP3K11, Data 2” value on MLK3/MAP3K11 is given as 92.62%. Besides, the remaining activity at 0.1 µM was found to be 96.4% in [2]; 27.8% in assay [3] (CDK4/cyclin D1); 37% in [3] (CDK4/cyclin D3); 75.3% in assay [4]; 90.7% in assay [5]; 83.4% in assay [6] (CDK9/cyclin K). In addition, the remaining activity at 0.1 µM in assay [6] (CDK9/cyclin T1) is 47.9%; in assay [6] (CDK9/cyclin T2), 38.8%; in assay [7], 21.5%; in assay [8] it was 10.7%; in [9], 63.6%; in [10], 6.7%. Besides, the results for the remaining activity at 0.1 µM (in assay [11]; on HGK/MAP4K4) were 94.1% and 29.9%, respectively. Besides, the remaining activity at 0.025 µM on HGK/MAP4K4 stood at 65.7%.
`CN1CCN(Cc2ccc(-c3cnc4[nH]cc(-c5ccoc5)c4c3)cc2)CC1` [Compound 7w, 3-(Furan-3-yl)-5-(4-((4-methylpiperazin-1-yl)methyl)phenyl)-1H-pyrrolo[2,3-b]pyridine]: in assay [1], the EC50 came out at 1370 nM. Besides, the viability at 1 µM in assay [1] amounted to 46.6%. In addition, in [1], the Emax stood at 0.42%. Moreover, on MLK3/MAP3K11, the “% Enzyme Activity Remaining (relative to DMSO controls), MLK3/MAP3K11, Data 1” value is 75.10%. Also, the “% Enzyme Activity Remaining (relative to DMSO controls), MLK3/MAP3K11, Data 2” value on MLK3/MAP3K11 is recorded as 76.98%. The remaining activity at 0.1 µM is 83.9% in assay [2]; 73.4% in assay [3] (CDK4/cyclin D1); 72.2% in assay [3] (CDK4/cyclin D3); 75.3% in assay [4]; 85.1% in assay [5]; 97.8% in [6] (CDK9/cyclin K). Further, the remaining activity at 0.1 µM in [6] (CDK9/cyclin T1) was 96.1%; in assay [6] (CDK9/cyclin T2), 65.6%; in assay [7] it was 80.8%; in assay [8] it was 61.4%; in assay [9], 90.4%; in [10], 0.45%. Also, the remaining activity at 0.1 µM came to 89.7% in assay [11] and 4.46% on HGK/MAP4K4. Further, at HGK/MAP4K4, the remaining activity at 0.025 µM was 29%.
Regarding `COc1ccccc1-c1c[nH]c2ncc(-c3ccc(CN4CCN(C)CC4)cc3)cc12` [Compound 7at, 3-(2-Methoxyphenyl)-5-(4-((4-methylpiperazin-1-yl)methyl)phenyl)-1H-pyrrolo[2,3-b]pyridine], the EC50 in [1] stood at 297 nM. Moreover, in [1], the viability at 1 µM turned out to be 67.5%. In addition, the Emax in assay [1] was determined as 85%. At MLK3/MAP3K11, the “% Enzyme Activity Remaining (relative to DMSO controls), MLK3/MAP3K11, Data 1” value is given as 24.55%. In addition, the “% Enzyme Activity Remaining (relative to DMSO controls), MLK3/MAP3K11, Data 2” value at MLK3/MAP3K11 was found to be 21.30%. In addition, the remaining activity at 0.1 µM in [2] came out at 90.2%; in assay [3] (CDK4/cyclin D1), 14.1%; in assay [3] (CDK4/cyclin D3), 24.4%; in assay [4], 82.8%; in assay [5] it was 97.3%; in [6] (CDK9/cyclin K), 79.5%. For the same molecule, the remaining activity at 0.1 µM came to 46.3% in assay [6] (CDK9/cyclin T1); 37.4% in [6] (CDK9/cyclin T2); 76.9% in assay [7]; 69.7% in [8]; 96.8% in assay [9]; 2.2% in [10]. Also, the remaining activity at 0.1 µM in [11] was found to be 77.8%; on HGK/MAP4K4, 4.83%. Also, the remaining activity at 0.025 µM on HGK/MAP4K4 is 29.3%.
